For test [1], the system named is PC-12. In words: Antioxidant activity against H2O2-induced impairment of rat PC12 cells apoptosis at 0.4 to 50 uM. It is filed as functional, cell-based.
Test [2] concerns PC-12. Nature of the test: Cytotoxicity against rat PC12 cells at 0.4 to 50 uM. It is filed as functional, cell-based.

The record followed here is ChEMBL document CHEMBL1157976, “Iridoid constituents of Tarenna attenuata” (J Nat Prod, 2006).

The source made the active and inactive calls. No cut-off for these calls is given here.

As to `COc1cc(/C=C/C(=O)O[C@H]2[C@H](O)[C@@H](O)[C@H](O[C@@H]3OC=C(C(=O)O)[C@H]4CC=C(C(=O)O)[C@@H]34)O[C@@H]2CO)ccc1O`, the outcome in the test on PC-12 [1] and in the test on PC-12 [2] was inactive.

`COc1cc(C(=O)OC[C@H]2O[C@@H](O[C@@H]3OC=C(C(=O)O)[C@H]4CC=C(C(=O)O)[C@@H]34)[C@H](O)[C@@H](O)[C@@H]2O)ccc1O`: the result in the test on PC-12 [1] and in the test on PC-12 [2] was inactive.

Turning to `O=C(/C=C/c1ccccc1)OC[C@H]1O[C@@H](O[C@@H]2OC=C(C(=O)O)[C@H]3CC=C(C(=O)O)[C@@H]23)[C@H](O)[C@@H](O)[C@@H]1O`, the outcome in the test with PC-12 [1] and in the test on PC-12 [2] was inactive.

Turning to `COc1cc(/C=C/C(=O)OC[C@H]2O[C@@H](O[C@@H]3OC=C(C(=O)O)[C@H]4CC=C(C(=O)O)[C@@H]34)[C@H](O)[C@@H](O)[C@@H]2O)ccc1O`, the result with PC-12 [1] and in the test with PC-12 [2] was inactive.

On to `O=C(O)C1=CC[C@@H]2C(C(=O)O)=CO[C@@H](O[C@@H]3O[C@H](CO)[C@@H](O)[C@H](O)[C@H]3O)[C@H]12`, for which the result with PC-12 [1] and in the test on PC-12 [2] was inactive.

`O=C(O)C1=CC[C@@H]2C(C(=O)O)=CO[C@@H](O[C@@H]3O[C@H](COC(=O)c4ccccc4)[C@@H](O)[C@H](O)[C@H]3O)[C@H]12`: the outcome with PC-12 [1] and with PC-12 [2] was inactive.

As to `COc1cc(C(=O)OC[C@H]2O[C@@H](O[C@@H]3OC=C(C(=O)O)[C@H]4CC=C(C(=O)O)[C@@H]34)[C@H](O)[C@@H](O)[C@@H]2O)cc(OC)c1O`, the result in the test on PC-12 [1] and in the test with PC-12 [2] was inactive.

For `COc1cc(C(=O)O[C@@H]2[C@@H](O)[C@H](O[C@@H]3OC=C(C(=O)O)[C@H]4CC=C(C(=O)O)[C@@H]34)O[C@H](CO)[C@H]2O)ccc1O`, the outcome in the test with PC-12 [1] and in the test with PC-12 [2] was inactive.

`COC(=O)C1=CC[C@@H]2C(C(=O)O)=CO[C@@H](O[C@@H]3O[C@H](CO)[C@@H](O)[C@H](O)[C@H]3O)[C@H]12`: the result in the test on PC-12 [1] and with PC-12 [2] was inactive.
